Read-outs that look alike come from different tables or passages of the source.
Tested on: U87MG cells
Assay: 2D cytotoxicity assay, SRB end point, dark vs green light
Type: cell-based, human
Conditions: normoxia (21% O2); for EC50: SRB at 96 h
Protocol: To test the in vitro phototoxicity of the three complexes toward 2D monolayer U87MG cells, a cell viability assay was undertaken as follows: the cells were seeded at t = 0, treated at t = 24 h, irradiated with green light (520 nm, 13.1 J cm^–2) at t = 48 h without refreshing the medium (drug-to-light interval = 24 h), further incubated in the dark for 48 h, and counted at t = 96 h with a sulforhodamine B (SRB) cell quantification end point assay.[45] Half-maximal effective concentrations (EC50 in μM), compared to untreated control, and photoindex (PI) values, defined as EC50,dark/ EC50,light, were calculated to characterize the toxicity and light activation of each Ru-peptide conjugate. […] However, a much stronger discrepancy appeared in the 2D toxicity data in hypoxic conditions (Table 2, Figure S22b). The phototherapeutic properties of Ru-p(HH) in the green light group were the poorest, leading to a PI of only 1.3. […] Ru-p(MH) stood somewhere between these values with a PI of 1.9 under hypoxia. […] The loss of activity of Ru-p(HH) under hypoxia is consistent with the hypothesis of a PDT pathway, while Ru-p(MM) keeping appreciable phototoxicity under hypoxia better fits the hypothesis of a PACT cell-killing mechanism.
U87MG cells (6000) were seeded in 96-well plates (Sarstedt, 83.3924), and each well contained 100 μL of Opti-MEM (Gibco complete medium 11058-021, supplemented with 2.5% v/v fetal calf serum (FCS), 0.2% v/v penicillin/streptomycin (P/S), and 1% v/v glutamine). They were then placed either in a normoxic (21% O2) or hypoxic (1.0% O2) incubator; 24 h later, different concentrations of Ru-p(HH), Ru-p(MH), or Ru-p(MM) dissolved in Opti-MEM (100 μL) were added to the wells in triplicate. For each complex, one dark and one light plate were involved. Each plate was further incubated in the dark for 24 h (DLI). After that, one plate was irradiated with green light (520 nm) for 20 min at 37 °C for normoxia (dose = 13.1 J cm^–2) or 30 min for hypoxia (dose = 13.0 J cm^–2), while the other plate was kept in the dark. The cells were further incubated for another 2 days in normoxic or hypoxic conditions, respectively. Finally, 100 μL of cold trichloroacetic acid (10% w/v) was added to each well to fix the cells, and all plates were then transferred to a 4 °C refrigerator for 48 h before an SRB cell quantification end point assay was performed.[45] All experiments were conducted in biologically independent triplicate.
Hypoxic cell models in vitro: all cells were incubated and passaged in a dark hypoxic incubator (1% O2) for at least 2 weeks before all hypoxia studies. Adding chemicals to the cells had to be performed in air; however, the cell-growing medium was kept in the hypoxia incubator for at least 2 days before the addition to hypoxic cells, and all hypoxic light irradiations were performed inside the hypoxic incubator set at 1.0% O2.

[Ru(Ph2phen)2(bpy)]Cl2
PI, photoindex EC50,dark/EC50,light: 74.4
EC50 (520 nm, 10.9 mW cm–2, 13.1 J cm–2, 20 min, DLI 24 h, n = 3, read-out: EC50, green light): 0.18 µM
EC50 (light dose 0, 24 h treatment, no wash, n = 3, read-out: EC50, dark): 13.4 µM

— PMC11672551, “Cyclic Ruthenium-Peptide Prodrugs Penetrate the Blood–Brain Barrier and Attack Glioblastoma upon Light Activation in Orthotopic Zebrafish Tumor Models” (ACS Central Science, 2024)
